From patent publication US6919380B2, “Derivatives of C2-substituted indan-1-ol systems for the prophylaxis or treatment of obesity” (Aventis Pharma Deutschland GmbH., priority 2001, dated 2005)

Legend:
female NMRI mice = assay: Anorectic action: cumulative evaporated milk consumption after removal of feed for 24 hours; format: in vivo, mouse; conditions: dose 10 mg/kg (ip or po, not specified)
Protocol: The activity of the compounds of the formula I was assayed as follows: […]
The anorectic action was tested on female NMRI mice. After removal of feed for 24 hours, the preparation to be tested was administered intraperitoneally (ip) or by gavage (po). The animals were housed singly and, with free access to drinking water, they were offered evaporated milk 30 minutes after administration of the preparation. The consumption of evaporated milk was determined and the general behavior of the animals was monitored every half an hour for 7 hours. The measured milk consumption was compared to that of vehicle-treated control animals.

## CC(=O)OC1c2ccc(Cl)cc2CC1S(C)(=O)=O (stereo not drawn) [Example 1, 1-Acetoxy-5-chloro-2-methylsulfonylindane]
Female NMRI mice; compared with control animals
  Reduction in cumulative milk consumption as % of the control: 81%
Female NMRI mice; milk offered 30 minutes after administration, monitored for 7 hours
  cumulative milk consumption by treated animals: 5/0.28 ml
other
  melting point: 136 °C
